Data from paper PMC8776995 (Frontiers in Chemistry, 2022).
Where “and” joins values, the source holds several entries; their conditions need not be identical. Identical values can stand only once.

How the values were obtained:
[1] = target: wild-type EGFR (Homo sapiens, UniProt P00533); experiment: EGFR kinase assay (ELISA); settings: for A450: raw ELISA absorbance
Description: The kinase enzyme of EGFR was purchased from Carna Bioscience (Kobe, Japan). A total of 10 ng/ml anti phosphotyrosine (PY713) antibody (abcam, Cambridge Science Park, United Kingdom) was precoated in 96-well ELISA plates. […] Then, a total of 3 μmol/L ATP was added and the reaction was continued for 2 h. […] After incubation, the wells were washed with PBS and then incubated with horseradish peroxidase (HRP)-conjugated streptavidin. The wells were visualized using 3,3′,5,5′-tetramethylbenzidine (TMB), and chromogenic reaction was ended with 2 mol/L H2SO4, the absorbance was read with a multimode plate reader (PerkinElmer, United States) at 450 nm.

[2] = system: H460 cells; experiment: CCK-8 antiproliferation assay, H460; settings: for Inhibitory efficacy: H460 cells
[3] = system: A549 cells; experiment: CCK-8 antiproliferation assay, A549; settings: for Inhibitory efficacy: A549 cells
[4] = system: PC-9 cells; experiment: CCK-8 antiproliferation assay, PC-9; settings: for Inhibitory efficacy: single repeats (Repeat 1-3), given as fraction
[5] = system: H1975 cells; experiment: CCK-8 antiproliferation assay, H1975; settings: for Inhibitory efficacy: H1975 cells
[6] = 2uM, given as fraction, Repeat 1-3
[7] = 4uM, given as fraction, Repeat 1-3
[8] = 8uM, given as fraction, Repeat 1-3
[9] = 16uM, given as fraction, Repeat 1-3

wild-type EGFR, sequence (P00533 25-1210): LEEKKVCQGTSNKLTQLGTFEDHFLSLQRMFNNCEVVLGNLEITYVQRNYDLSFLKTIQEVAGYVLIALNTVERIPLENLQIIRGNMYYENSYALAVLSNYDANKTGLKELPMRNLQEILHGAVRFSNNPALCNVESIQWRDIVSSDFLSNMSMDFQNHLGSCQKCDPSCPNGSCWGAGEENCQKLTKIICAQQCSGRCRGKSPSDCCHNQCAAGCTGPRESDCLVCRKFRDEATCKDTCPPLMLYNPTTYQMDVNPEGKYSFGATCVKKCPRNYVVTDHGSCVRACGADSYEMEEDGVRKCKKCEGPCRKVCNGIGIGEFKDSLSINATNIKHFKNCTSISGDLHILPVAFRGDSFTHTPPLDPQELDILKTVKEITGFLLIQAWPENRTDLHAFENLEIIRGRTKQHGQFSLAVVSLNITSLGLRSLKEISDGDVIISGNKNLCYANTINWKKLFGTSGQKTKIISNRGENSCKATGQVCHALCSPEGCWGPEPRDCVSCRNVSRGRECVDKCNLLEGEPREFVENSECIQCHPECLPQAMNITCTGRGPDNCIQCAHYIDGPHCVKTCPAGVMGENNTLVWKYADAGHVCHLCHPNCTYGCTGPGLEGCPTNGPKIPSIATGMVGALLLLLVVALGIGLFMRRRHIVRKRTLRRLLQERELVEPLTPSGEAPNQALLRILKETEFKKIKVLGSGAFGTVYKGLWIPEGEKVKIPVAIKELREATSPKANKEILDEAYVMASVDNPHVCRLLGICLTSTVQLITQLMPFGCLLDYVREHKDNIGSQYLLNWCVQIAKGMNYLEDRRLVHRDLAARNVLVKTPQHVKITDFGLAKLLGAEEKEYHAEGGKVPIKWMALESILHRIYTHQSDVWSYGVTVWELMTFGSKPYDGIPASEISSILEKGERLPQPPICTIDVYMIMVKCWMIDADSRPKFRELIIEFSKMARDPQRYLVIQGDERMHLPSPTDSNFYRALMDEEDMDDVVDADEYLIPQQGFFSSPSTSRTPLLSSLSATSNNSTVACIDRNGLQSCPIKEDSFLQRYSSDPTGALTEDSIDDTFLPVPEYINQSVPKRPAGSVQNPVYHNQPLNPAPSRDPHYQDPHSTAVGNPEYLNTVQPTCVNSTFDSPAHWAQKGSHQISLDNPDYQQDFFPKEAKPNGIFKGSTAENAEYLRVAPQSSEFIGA

COCCOc1cc2ncnc(Nc3cccc(-c4cn(-c5ccccc5OC)nn4)c3)c2cc1OCCOC [e11, [6,7-Bis-(2-methoxy-ethoxy)-quinazolin-4-yl]-{3-[1-(2-methoxy-phenyl)-1H-[1,2,3]triazol-4-yl]-phenyl}-amine]
melting point: 87 to 90 °C
IC50 ([1]; IC50 (μM) EGFR, ELISA, 3 μmol/L ATP): 49.4 µM
inhibition at 100 fM ([1]; concentration 0.0001 nM (reference for normalisation), one value per replicate column): 0%
inhibition at 30 pM ([1]; concentration 0.03 nM, one value per replicate column): 4.93%
Inhibition ([1]; concentration 0.03 nM, one value per replicate column, 3e-05 µM): 3.3195
inhibition at 0.0003 µM ([1]; concentration 0.3 nM, one value per replicate column): 5.78%
Inhibition ([1]; concentration 0.3 nM, one value per replicate column, 0.0003 µM): 3.734
inhibition at 0.003 µM ([1]; concentration 3 nM, one value per replicate column): 6.42%
Inhibition ([1]; concentration 3 nM, one value per replicate column, 0.003 µM): 4.357
inhibition at 0.03 µM ([1]; concentration 30 nM, one value per replicate column): 7.71%
Inhibition ([1]; concentration 30 nM, one value per replicate column, 0.03 µM): 6.432
inhibition at 0.3 µM ([1]; concentration 300 nM, one value per replicate column): 13.1%
Inhibition ([1]; concentration 300 nM, one value per replicate column, 0.3 µM): 8.091
inhibition at 3 µM ([1]; concentration 3000 nM, one value per replicate column): 13.3%
Inhibition ([1]; concentration 3000 nM, one value per replicate column, 3 µM): 12.4481
inhibition at 30 µM ([1]; concentration 30000 nM, one value per replicate column): 46.9%
Inhibition ([1]; concentration 30000 nM, one value per replicate column, 30 µM): 45.2282
A450 ([1]; concentration 0.0001 nM): 0.614 and 0.641
A450 ([1]; concentration 0.03 nM): 0.591 and 0.625
A450 ([1]; concentration 0.3 nM): 0.587 and 0.623
A450 ([1]; concentration 3 nM): 0.584 and 0.62
A450 ([1]; concentration 30 nM): 0.578 and 0.61
A450 ([1]; concentration 300 nM): 0.553 and 0.602
A450 ([1]; concentration 3000 nM): 0.552 and 0.581
A450 ([1]; concentration 30000 nM): 0.395 and 0.423
Inhibitory efficacy [2, 6]: 0.2801 and 0.2884
Inhibitory efficacy [2, 7]: 0.5058 and 0.5573
Inhibitory efficacy [2, 8]: 0.6543 and 0.6301
Inhibitory efficacy [2, 9]: 0.6649 and 0.6664
IC50 ([2]; Homo sapiens, NCI-H460, 48 h, read-out: IC50 (μM) H460, CCK-8, 48 h, average ± SD of three independent experiments): 4.89 ± 0.23 µM
inhibition at 2 µM ([2]; Homo sapiens, NCI-H460, read-out: Inhibitory efficacy, H460 cells, 2uM, given as fraction, Repeat 1-3): 34.4%
inhibition at 4 µM ([2]; Homo sapiens, NCI-H460, read-out: Inhibitory efficacy, H460 cells, 4uM, given as fraction, Repeat 1-3): 48.9%
inhibition at 8 µM ([2]; Homo sapiens, NCI-H460, read-out: Inhibitory efficacy, H460 cells, 8uM, given as fraction, Repeat 1-3): 64.7%
inhibition at 16 µM ([2]; Homo sapiens, NCI-H460, read-out: Inhibitory efficacy, H460 cells, 16uM, given as fraction, Repeat 1-3): 69.5%
Inhibitory efficacy [3, 6]: 0.1633 and 0.2142
Inhibitory efficacy [3, 7]: 0.2462 and 0.3291
Inhibitory efficacy [3, 8]: 0.4514 and 0.4662
Inhibitory efficacy [3, 9]: 0.7059 and 0.6624
IC50 ([3]; Homo sapiens, A549, 48 h, read-out: IC50 (μM) A549, CCK-8, 48 h, average ± SD of three independent experiments): 8.4 ± 0.29 µM
inhibition at 2 µM ([3]; Homo sapiens, A549, read-out: Inhibitory efficacy, A549 cells, 2uM, given as fraction, Repeat 1-3): 20.1%
inhibition at 4 µM ([3]; Homo sapiens, A549, read-out: Inhibitory efficacy, A549 cells, 4uM, given as fraction, Repeat 1-3): 25%
inhibition at 8 µM ([3]; Homo sapiens, A549, read-out: Inhibitory efficacy, A549 cells, 8uM, given as fraction, Repeat 1-3): 52.7%
inhibition at 16 µM ([3]; Homo sapiens, A549, read-out: Inhibitory efficacy, A549 cells, 16uM, given as fraction, Repeat 1-3): 68.7%
IC50 ([4]; Homo sapiens, PC-9, 48 h, read-out: IC50 (μM) PC-9): 16 ± 1.04 µM
inhibition at 8 µM ([4]; Homo sapiens, PC-9, read-out: Inhibitory efficacy, PC-9, 8uM, single repeats (Repeat 1-3), given as fraction): 27.4%
inhibition at 16 µM ([4]; Homo sapiens, PC-9, read-out: Inhibitory efficacy, PC-9, 16uM, single repeats (Repeat 1-3), given as fraction): 46.7%
Inhibitory efficacy ([4]; PC-9, 8uM, 8 µM): 0.2959 and 0.2658
Inhibitory efficacy ([4]; PC-9, 16uM, 16 µM): 0.4848 and 0.4258
Inhibitory efficacy [5, 6]: 0.257 and 0.2168
Inhibitory efficacy [5, 7]: 0.213 and 0.192
Inhibitory efficacy [5, 8]: 0.4311 and 0.3814
Inhibitory efficacy [5, 9]: 0.6071 and 0.5938
IC50 ([5]; Homo sapiens, NCI-H1975, 48 h, read-out: IC50 (μM) H1975, CCK-8, 48 h, average ± SD of three independent experiments): 10.8 ± 1.57 µM
inhibition at 2 µM ([5]; Homo sapiens, NCI-H1975, read-out: Inhibitory efficacy, H1975 cells, 2uM, given as fraction, Repeat 1-3): 29.1%
inhibition at 4 µM ([5]; Homo sapiens, NCI-H1975, read-out: Inhibitory efficacy, H1975 cells, 4uM, given as fraction, Repeat 1-3): 32.2%
inhibition at 8 µM ([5]; Homo sapiens, NCI-H1975, read-out: Inhibitory efficacy, H1975 cells, 8uM, given as fraction, Repeat 1-3): 49.2%
inhibition at 16 µM ([5]; Homo sapiens, NCI-H1975, read-out: Inhibitory efficacy, H1975 cells, 16uM, given as fraction, Repeat 1-3): 59.9%
